Measured values taken from US11542282B2, “Low affinity poly(AD-ribose) polymerase 1 dependent cytotoxic agents” (THE TRUSTEES OF THE UNIVERSITY OF PENNSYLVANIA, priority 2018, dated 2023).

Legend:
MEF WT cells = experiment: Cell viability assay in MEF WT cells; assay type: cell-based, mouse; conditions: NA = Not applicable, no cell death observed
Protocol: (§1) Genetically engineered PARP-1 and PARP-2 double knockout mouse embryonic fibroblast (MEF) were used for cell viability studies with wildtype control.
(§2) Cell viability assays were carried out using four cell lines including OVCAR8, MEF wt, MEF PARP-1 (−/−) KO, and MEF PARP-2 (−/−) KO as described in Makvandi cited above. Briefly, cells were seeded in black wall clear bottom 96-well plates at concentrations of 1,000 cells/well. […] Plates were read on an Enspire multimode plate reader (Perkin Elmer). Data was normalized to percent survival at each concentration evaluated by diving the luminescent signal in treated wells vs. the average of vehicle controls. Experiments were repeated three times and all compounds were assayed during each experiment.
(§3) This isogenic model was selected due to the highly conserved nature of the PARP catalytic domain, all-owing investigation in enzyme specificity.

[1] = test system: MEF PARP-2 (-/-) KO cells; experiment: Cell viability assay in MEF PARP-2 KO-/- cells; assay type: cell-based, mouse; conditions: NA = Not applicable, no cell death observed
Protocol: as §1, §2, §3
The cell cytotoxicity profile of these selected compounds in MEF PARP-2 KO−/− cell lines was then analyzed as described above.

PARP-1 = PARP-1 (Homo sapiens, UniProt P09874); experiment: PARP-1 radioligand binding in live OVCAR8 cells ([125I]KX1 competition); conditions: for IC50: radioligand binding in OVCAR8 cells; for enzyme affinity in contrast to respective boc-protected analogue: free-amine derivatives
Protocol: Cells were cultured using standard techniques at 37° C. with 5% CO2 and 15% 02. […] Genetically engineered PARP-1 and PARP-2 double knockout mouse embryonic fibroblast (MEF) were used for cell viability studies with wildtype control. All cells were cultured in RPMI 1640 with 10% FBS and 1% penicillin/streptomycin.
The affinity of each compound for the PARP-1 enzyme was evaluated using a radioligand binding method described in Makvandi, A radiotracer strategy to quantify PARP-1 expression in vivo provides a biomarker that can enable patient selection for PARP inhibitor therapy. Cancer Research 2016. Briefly, OVCAR8 ovarian cancer cells were seeded in 96-well Stripwell plates at a density of 40,000 cells/well 24 hrs prior to the study. On the day of study, compounds were diluted in RPMI to concentrations of 100 μM-0.064 nM. […] Reactions were allowed to equilibrate for 1 hr and were then washed with 200 μL of PBS. Wells were separated and counted on an automatic Wizard gamma counter (Perkin Elmer, Waltham Mass.). […] Experiments were repeated three times with adjusting dose concentrations to increase accuracy of IC50 values.
Compounds 10-17 were evaluated for PARP-1 inhibition using a radioligand binding assay protocol with BRCA1 methylated ovarian cancer cells (OVCAR8) as described above. See, Table 3. […] Compared to 1a, oxaazaspiro analogue 1b performed slightly better with scaffold 10b displaying a PARP-1 binding value of 24.9 nM.

Sequence of PARP-1 (P09874 whole entry): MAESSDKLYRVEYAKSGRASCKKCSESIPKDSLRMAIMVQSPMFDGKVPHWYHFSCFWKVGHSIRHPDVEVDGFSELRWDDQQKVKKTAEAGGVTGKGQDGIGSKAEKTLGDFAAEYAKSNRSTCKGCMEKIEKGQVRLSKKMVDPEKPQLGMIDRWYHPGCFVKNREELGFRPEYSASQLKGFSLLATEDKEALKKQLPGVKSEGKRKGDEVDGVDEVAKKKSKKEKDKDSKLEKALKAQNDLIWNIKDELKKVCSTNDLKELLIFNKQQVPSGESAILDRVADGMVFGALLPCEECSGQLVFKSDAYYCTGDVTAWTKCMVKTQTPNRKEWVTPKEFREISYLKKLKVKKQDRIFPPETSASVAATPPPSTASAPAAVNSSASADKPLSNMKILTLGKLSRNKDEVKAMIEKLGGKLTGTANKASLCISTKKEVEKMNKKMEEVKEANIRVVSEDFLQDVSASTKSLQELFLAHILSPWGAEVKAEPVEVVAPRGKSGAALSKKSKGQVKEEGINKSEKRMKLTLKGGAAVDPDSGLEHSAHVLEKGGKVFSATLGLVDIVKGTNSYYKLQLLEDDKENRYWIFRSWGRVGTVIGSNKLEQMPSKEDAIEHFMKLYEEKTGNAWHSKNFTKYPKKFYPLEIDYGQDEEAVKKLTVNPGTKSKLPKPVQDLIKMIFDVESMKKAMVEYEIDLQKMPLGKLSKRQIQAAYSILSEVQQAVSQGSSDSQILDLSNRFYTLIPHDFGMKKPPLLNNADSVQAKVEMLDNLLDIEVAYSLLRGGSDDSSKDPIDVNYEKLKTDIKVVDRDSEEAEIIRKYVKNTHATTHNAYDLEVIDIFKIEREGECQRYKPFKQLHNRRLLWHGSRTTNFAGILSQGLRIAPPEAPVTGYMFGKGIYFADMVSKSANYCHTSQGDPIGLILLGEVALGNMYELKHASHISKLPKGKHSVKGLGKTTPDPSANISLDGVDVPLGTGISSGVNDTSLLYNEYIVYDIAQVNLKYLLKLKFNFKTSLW

| Structure (SMILES) | EC50 (PARP-1) | EC50 (MEF WT cells; Mus musculus) | EC50 ([1]; Mus musculus) | further results |
| --- | --- | --- | --- | --- |
| O=C(C1CC1)N1CC2(CCN2C(=O)c2cc(Cc3n[nH]c(=O)c4ccccc34)ccc2F)C1 [Compound 11d, 4-(3-(6-(Cyclopropanecarbonyl)-1,6-diazaspiro[3.3]heptane-1-carbonyl)-4-fluorobenzyl)phthalazin-1(2H)-one] |  | 53.2 µM | 46.7 µM |  |
| O=C(c1cc(Cc2n[nH]c(=O)c3ccccc23)ccc1F)N1CC2(CCN(C(=O)C3CC3)CC2)C1 [Compound 12d, 4-(3-(7-(Cyclopropanecarbonyl)-2,7-diazaspiro[3.5]nonane-2-carbonyl)-4-fluorobenzyl)phthalazin-1(2H)-one] | 0.1 µM | 49.3 µM | 57.2 µM |  |
| O=C(c1cc(Cc2n[nH]c(=O)c3ccccc23)ccc1F)N1CCC12CCC2 [Compound 11a, 4-(4-Fluoro-3-(I-azaspiro[3.3]heptane-1-carbonyl)benzyl)phthalazin-1(2H)-one] |  |  |  | EC50 (MEF WT cells): 48 µM; EC50 [1]: 58.3 µM |
| O=C(c1cc(Cc2n[nH]c(=O)c3ccccc23)ccc1F)N1CCC2(CCN(C(=O)C3CC3)CC2)C1 [Compound 16d, 4-(3-(8-(Cyclopropanecarbonyl)-2,8-diazaspiro[4.5]decane-2-carbonyl)-4-fluorobenzyl)phthalazin-1(2H)-one] | 0.225 µM | 41.6 µM | 61 µM |  |
| O=C(c1cc(Cc2n[nH]c(=O)c3ccccc23)ccc1F)N1CCC2(CCNCC2)C1 [Compound 16c, 4-(4-Fluoro-3-(2,8-diazaspiro[4.5]decane-2-carbonyl)benzyl)phthalazin-1(2H)-one] | 3.88 µM |  |  |  |
| CC(C)(C)OC(=O)N1CCC2(CC1)CCN2C(=O)c1cc(Cc2n[nH]c(=O)c3ccccc23)ccc1F [Compound 13b, Tert-butyl 1-(2-fluoro-5-((4-oxo-3,4-dihydrophthalazin-1-yl)methyl)benzoyl)-1,7-diazaspiro[3.5]nonane-7-carboxylate] | 2.97 µM | ~23 µM | 33.2 µM | EC50 (MEF WT cells): 23.3 µM |
| O=C(c1cc(Cc2n[nH]c(=O)c3ccccc23)ccc1F)N1CCC2(CCNCC2)CC1 [Compound 17c, 4-(4-Fluoro-3-(3,9-diazaspiro[5.5]undecane-3-carbonyl)benzyl)phthalazin-1(2H)-one] | 0.234 µM |  | 59.7 µM | enzyme affinity in contrast to respective boc-protected analogue (PARP-1): slight increase in enzyme affinity |
| O=C(c1cc(Cc2n[nH]c(=O)c3ccccc23)ccc1F)N1CC2(CCNCC2)C1 [Compound 12c, 4-(4-Fluoro-3-(2,7-diazaspiro[3.5]nonane-2-carbonyl)benzyl)phthalazin-1(2H)-one] | 1.42 µM |  | 68.5 µM | enzyme affinity in contrast to respective boc-protected analogue (PARP-1): slight increase in enzyme affinity |
| O=C(c1cc(Cc2n[nH]c(=O)c3ccccc23)ccc1F)N1CC2(CCC2)C1 [Compound 10a, 4-(4-Fluoro-3-(2-azaspiro[3.3]heptane-2-carbonyl)benzyl)phthalazin-1(2H)-one] | 0.0339 ± 0.0015 µM | 48.3 µM | 49 µM |  |
| O=C(c1cc(Cc2n[nH]c(=O)c3ccccc23)ccc1F)N1CCC12CNC2 [Compound 11c, 4-(4-Fluoro-3-(1,6-diazaspiro[3.3]heptane-1-carbonyl)benzyl)phthalazin-1(2H)-one] |  |  |  | enzyme affinity in contrast to respective boc-protected analogue (PARP-1): slight increase in enzyme affinity |
| COC1CC(NC(=O)c2cc(Cc3n[nH]c(=O)c4ccccc34)ccc2F)C1 (stereo not shown) [Compound 18] | 0.0741 µM |  |  |  |
| O=C(c1cc(Cc2n[nH]c(=O)c3ccccc23)ccc1F)N1CCC2(CCC2)C1 [Compound 14a, 4-(4-Fluoro-3-(6-azaspiro[3.4]octane-6-carbonyl)benzyl)phthalazin-1(2H)-one] | 0.0324 ± 0.0011 µM | 45.2 µM | 54.7 µM |  |
| CC(C)(C)OC(=O)N1CC2(CCN2C(=O)c2cc(Cc3n[nH]c(=O)c4ccccc34)ccc2F)C1 [Compound 11b, Tert-butyl 1-(2-fluoro-5-((4-oxo-3,4-dihydrophthalazin-1-yl)methyl)benzoyl)-1,6-diazaspiro[3.3]heptane-6-carboxylate] |  | 42.9 µM | 35.8 µM |  |
| O=C(c1cc(Cc2n[nH]c(=O)c3ccccc23)ccc1F)N1CC2(CC(c3ccc(F)cc3)C2)C1 [Compound 39, 4-(4-fluoro-3-(6-(4-fluorophenyl)-2-azaspiro[3.3]heptane-2-carbonyl)benzyl)phthalazin-1(2H)-one] | 0.0028 µM |  |  |  |
| O=C(c1cc(Cc2n[nH]c(=O)c3ccccc23)ccc1F)N1CC2(CNC2)C1 [Compound 10d, 4-(4-Fluoro-3-(2,6-diazaspiro[3.3]heptane-2-carbonyl)benzyl)phthalazin-1(2H)-one] | 2.39 µM |  |  |  |
| CC(C)(C)OC(=O)N1CC2(CCN(C(=O)c3cc(Cc4n[nH]c(=O)c5ccccc45)ccc3F)C2)C1 [Compound 14b] | 1.19 µM | 29.2 µM | 31.8 µM |  |
| O=C(c1cc(Cc2n[nH]c(=O)c3ccccc23)ccc1F)N1CCC12CCCCC2 [Compound 13a, 4-(4-Fluoro-3-(1-azaspiro[3.5]nonane-1-carbonyl)benzyl)phthalazin-(2H)-one] | 0.284 ± 0.0012 µM | 32.6 µM | 78.8 µM |  |
| O=C(c1cc(Cc2n[nH]c(=O)c3ccccc23)ccc1F)N1CCC2(CNC2)C1 [Compound 14c, 4-(4-Fluoro-3-(2,6-diazaspiro[3.4]octane-6-carbonyl)benzyl)phthalazin-1(2H)-one] | 1.24 µM |  |  |  |
| CC(C)(C)OC(=O)N1CCC2(C1)CN(C(=O)c1cc(Cc3n[nH]c(=O)c4ccccc34)ccc1F)C2 [Compound 14b] |  |  |  | IC50 (PARP-1): 1.19 µM |

Continued by falling EC50 (PARP-1), values first:

| EC50 (PARP-1) | Structure (SMILES) | EC50 (MEF WT cells; Mus musculus) | EC50 ([1]; Mus musculus) | further results |
| --- | --- | --- | --- | --- |
| 2.59 µM | O=C(c1cc(Cc2n[nH]c(=O)c3ccccc23)ccc1F)N1CCC2(CCN(C(=O)C3CC3)C2)C1 (stereo not shown) [Compound 15d, 4-(3-(7-(Cyclopropanecarbonyl)-2,7-dizaspiro[4.4]nonane-2-carbonyl)-4-fluorobenzyl)phthalazin-1(2H)-one] |  | 70.9 µM |  |
| 1.12 µM | O=C(c1cc(Cc2n[nH]c(=O)c3ccccc23)ccc1F)N1CCC2(CCNC2)C1 (stereo not shown) [Compound 15c, 4-(4-Fluoro-3-(2,7-diazaspiro[4.4]nonane-2-carbonyl)benzyl)phthalazin-1(2H)-one] |  | 512 µM | enzyme affinity in contrast to respective boc-protected analogue (PARP-1): slight increase in enzyme affinity |
| 0.552 µM | CC(C)(C)OC(=O)N1CC2(C1)CN(C(=O)c1cc(Cc3n[nH]c(=O)c4ccccc34)ccc1F)C2 [Compound 10c, Tert-butyl 6-(2-fluoro-5-((4-oxo-3,4-dihydrophthalazin-1-yl)methyl)benzoyl)-2,6-diazaspiro[3.3]heptane-2-carboxylate] | 31.1 µM | 24.7 µM | fold lower PARP-1 affinity compared to the methylene congener (PARP-1; 10c vs 10a, 15b vs 15a): ~16 fold; IC50 (PARP-1): 0.552 µM |
| 0.431 µM | O=C(C1CC1)N1CCC2(CC1)CCN2C(=O)c1cc(Cc2n[nH]c(=O)c3ccccc23)ccc1F [Compound 13d, 4-(3-(7-(Cyclopropanecarbonyl)-1,7-diazaspiro[3.5]nonane-1-carbonyl)-4-fluorobenzyl)phthalazin-1(2H)-one] | 47.5 µM | 44.4 µM |  |
| 0.11 µM | O=C(c1cc(Cc2n[nH]c(=O)c3ccccc23)ccc1F)N1CCC12CCNCC2 [Compound 13c, 4-(4-Fluoro-3-(1,7-diazaspiro[3.5]nonane-1-carbonyl)benzyl)phthalazin-1(2H)-one] |  | 106 µM | fold improvement of PARP-1 affinity upon removing the boc-group (PARP-1; 13c vs 13b): ~29 fold; IC50 (PARP-1): 0.11 µM |
| 0.0249 µM | O=C(c1cc(Cc2n[nH]c(=O)c3ccccc23)ccc1F)N1CC2(COC2)C1 [Compound 10b, 4-(4-Fluoro-3-(2-oxa-6-azaspiro[3.3]heptane-6-carbonyl)benzyl)phthalazin-1(2H)-one] | 52.2 µM | 53.3 µM | IC50 (PARP-1): 0.0249 µM |
| 0.0126 µM | O=C(c1cc(Cc2n[nH]c(=O)c3ccccc23)ccc1F)N1CC2(C1)CN(C(=O)C1CC1)C2 [Compound 10e, 4-(3-(6-(Cyclopropanecarbonyl)-2,6-diazaspiro[3.3]heptane-2-carbonyl)-4-fluorobenzyl)phthalazin-1(2H)-one] |  | 59.8 µM | IC50 (PARP-1): 0.0126 µM |
| 0.0107 ± 0.0011 µM | O=C(c1cc(Cc2n[nH]c(=O)c3ccccc23)ccc1F)N1CC2(CC(OCCF)C2)C1 [Compound 37B, 4-(4-fluoro-3-(6-(2-fluoroethoxy)-2-azaspiro[3.3]heptane-2-carbonyl)benzyl)phthalazin-1(2H)-one] |  |  |  |
| 0.0013 µM | O=C(c1cc(Cc2n[nH]c(=O)c3ccccc23)ccc1F)N1CCC(c2ccc(F)cc2)CC1 [Compound 36, 4-(4-fluoro-3-(4-(4-fluorophenyl)piperidine-1-carbonyl)benzyl)phthalazin-1(2H)-one] |  |  |  |
